The values below are quoted from earlier work in PMC11839696 (European Journal of Nuclear Medicine and Molecular Imaging, 2024).

The subject of the series is prostate cancer tissue. The arrangement: AUC of the ROC analysis: unit not given beside the values.

For the molecule `O=C(O)CC[C@H](NC(=O)N[C@@H](CCCCNC(=O)[C@H](Cc1ccc2ccccc2c1)NC(=O)c1ccc(CNC(=O)[C@H](CCC(=O)O)NC(=O)[C@H](CCC(=O)O)NC(=O)c2ccc([18F])nc2)cc1)C(=O)O)C(=O)O` [[^18F]-PSMA-1007], where the note is “at 75 CPM”, the sensitivity is recorded as 65.1% and the specificity is on record as 87%. Further, the “optimal threshold for determining PCa” value (five patients, 113 cores) is listed as 75 CPM. In addition, the “AUC of the ROC analysis” value (five patients, 113 cores, within 3 h after injection) is given as 0.81.
